Our source for the particle size values is patent publication US20110212142A1, “CURCUMINOIDS AND ITS METABOLITES FOR THE APPLICATION IN OCULAR DISEASES” (LAILA PHARMACEUTICALS PVT.LTD., priority 2008, published 2011).

Like-named read-outs stand apart in the source and are kept apart here.

This data set can be described thus: Particle size distribution study (Malvern particle size analyzer, laser diffraction). It counts as physicochemical. The procedure: The study was conducted using Malvern particle size analyzer. The map of scattering intensity versus angle is the primary source of information used to calculate the particle size. The scattering of particles is accurately predicted by the Mie scattering model allowing accurate sizing across the widest possible dynamic range. During the laser diffraction measurement, particles are passed through a focused laser beam. These particles scatter light at an angle that is inversely proportional to their size. The angular intensity of the scattered light is then measured by a series of photosensitive detectors. The advantage of this study is that there is no sample preparation involved.
This is a clear indication that the process of nanoemulsification followed has effectively transformed the large sized particles to nanosized coated curcuminoid particles. Additional peaks can be observed which is contributed by the high molecular weight excipients used to prepare the formulation.

`COc1cc(/C=C/C(=O)CC(=O)/C=C/c2ccc(O)c(OC)c2)ccc1O` [unformulated curcumin 98%, curcumin] showed a particle size of 373 nm. This compound yielded a particle size (listed as unformulated curcumin) of 374 nm.
